Laboratory results reported in patent US20100290989A1, “COMPOSITIONS AFFECTING HYALURONIC ACID MEDIATED ACTIVITY” (LONDON HEALTH SCIENCES CENTRE RESEARCH INC., priority 2007, published 2010).
Entries after “also recorded” stand apart in the source; their conditions may differ.

Tests used:
[1] = Isothermal calorimetry (ITC) of peptide binding to low molecular weight HA
Method: (§1) The binding of soluble peptide 15-1 to HA was next evaluated by isothermal calorimetry (ITC), to estimate a binding constant for the peptide (FIG. 2, the two lines represent two independent determinations in the figure). A buffered solution of 0.9 mM low molecular weight HA (10 kD average molecular weight) was injected into to a 0.6 mM peptide 15-1 solution. […] This peptide (and the scrambled control) have been further characterized in biological systems.

prostate tumor cells = experiment: In vivo growth of subcutaneously injected, peptide-pretreated tumor cells; parameters: species or system NOD.CB17 SCID mice; details: cells pretreated with 50 micromolar peptide, tumors harvested after 28 days
Method: Studies have also been performed to determine if peptide 15-1 can inhibit tumor growth in a more complex microenvironment (FIG. 5). One hundred thousand tumor cells pretreated with 50 micromolar peptide 15-1 were injected subcutaneously into NOD.CB17 SCID mice. Twenty eight days later the mice were euthanized and the tumors harvested and analyzed.

MDA-MB 231 cells = experiment: Methylcellulose assay, anchorage independent growth of breast cancer cells; format: cell-based, human; details: MDA-MB 231 in methylcellulose; 30 ug/ml; one week; versus scrambled control peptide
Method: MDA-MB 231 cells were grown in Methylcellulose containing either peptide 15-1 (STMMSRSHKTRSHHV) or scrambled control peptide (HKSVSRHTSMRHSTM) (30 ug/ml). One week later, cells were counted.

[2] = Isothermal calorimetry (ITC) of peptide binding to high molecular weight HA; details: high molecular weight HA used instead of fragmented HA
Description: as §1, with “figure).” for “figure). A buffered solution of 0.9 mM low molecular weight HA (10 kD average molecular weight) was injected into to a 0.6 mM peptide 15-1 solution.”

MDA-MB-231 cells = experiment: Scratch wound assay, breast cancer cell migration; format: cell-based, human; details: 30 ug/ml, 24 hrs, versus scrambled control peptide
Method: A confluent monolayer of MDA-MB-231 cells were scratched using a pipette tip. Cells were incubated in medium containing either peptide 15-1 (STMMSRSHKTRSHHV) or scrambled control peptide (HKSVSRHTSMRHSTM) (30 ug/ml). After 24 hrs, cells that migrated into the scratch were counted.

[3] = system: wild-type dermal fibroblast cells; experiment: Scratch wound assay, wild-type fibroblast migration; format: cell-based; details: migration stimulated by 30-mer HA
Method: (§2) Scratch wound assays with Rhamm null and wildtype fibroblast cells were used to evaluate the biological properties of peptide 15-1.
(§3) Scratch wound assays are commonly used to assess the effects of drugs and drug candidates on cellular migration associated with wound closing. In a typical scratch wound assay, cells are plated to confluence in a multiwell plate. A single scratch wound is created in each well. The plate is then imaged at fixed time intervals. Cell number in the area of the scratch wound can be quantified to evaluate the characteristics of wound closing in the presence of pharmacological agents.
(§4) The lack of HA induced migration was reversed by re-expression of Rhamm (FIG. 3a).
The scratch wound assay was also used to determine the ability of various sizes of HA oligomers to promote migration of wild-type dermal fibroblast cells (FIGS. 8a and 8b).

[4] = system: Prostate tumor PC3M-LN4 cells; experiment: Methylcellulose assay, anchorage-independent growth of prostate tumor cells with peptide; format: cell-based; details: 50 micromolar peptide; PC3M-LN4 in methylcellulose; 7 days
Method: A methylcellulose assay was adapted to evaluate anchorage-independent growth of prostate tumor cells in vitro. This assay offers advantages over agarose since the gels can be easily solubilized, allowing for recovery and quantification/biochemical characterization of cells at the end of the experiment. Prostate tumor PC3M-LN4 cells which synthesize large amounts of HA grow in this assay to form large multicellular colonies. Cells were recovered and counted after 7 days of incubation.
Fifteen thousand PC3M-LN4 cells were seeded into methylcellulose in the presence of 50 micromolar of the HA binding peptide 15-1 or scrambled peptide. Each peptide was mixed with PC3M-LN4 cells prior to culturing these cells in methylcellulose (FIG. 4). Culturing these cells in the presence of 50 micromolar peptide 15-1 inhibits anchorage-independent growth by 80%, which is highly statistically significant (FIG. 4).

[5] = system: Rhamm null (Rh−/−) fibroblasts; experiment: Scratch wound assay, Rhamm null fibroblast migration; format: cell-based; details: with HA
Method: as §2, §3, §4

Sequence | interaction with HA ([1]; low molecular weight HA (10 kD average), same conditions as peptide 15-1) | tumor growth (prostate tumor cells) | anchorage independent growth of human breast cancer cells (MDA-MB 231 cells) | interaction with high molecular weight HA [2] | scratch wound induced migration of human breast cancer cells (MDA-MB-231 cells) | inhibition of HA stimulated migration of wildtype cells [3] | inhibition of anchorage-independent growth [4] | inhibition of migration of Rhamm null cells [5] | Kd ([1]; 0.9 mM low molecular weight HA (10 kD average) injected into 0.6 mM peptide solution, estimated, read-out: binding constant (Kd))
HKSVSRHTSMRHSTM [scrambled peptide, scrambled counterpart of peptide 15-1 used as a control, reference compound] | did not interact with HA | – | – | – | – | – | – | – | –
STMMSRSHKTRSHHV [peptide 15-1] | – | decrease in tumor growth | reduce anchorage independent growth | greatly reduced | reduces scratch wound induced migration | sensitive to the inhibitory effects; also recorded: inhibited | 80% | resistant to the inhibitory effects | 100 nM
